Results published in patent US20120141479A1, “Histone Deacetylase Inhibitors Sensitize Cancer Cells To Epidermal Growth Factor Inhibitors” (priority 2007, published 2012).

What was measured:
Assay type in all cases: cell-based
[1] = tested on: E-cad expression in H157 cells; assay: E-cad expression after HDAC inhibitor treatment; conditions: 24 hours after treatment with 4 or 10 μM MS-275
Procedure: (§1) RNA, Primers, and Quantitative Real-Time RT-PCR. Total RNA was prepared from NSCLC cell lines using the RNAeasy (Qiagen). During the preparation all samples were treated with RNase-free DNase 1 (10 mg/ml, Qiagen) prior to cDNA synthesis. cDNA was synthesized as part of the RT-PCR reaction from […] total RNA. Quantitative Real-Time RT-PCR assays were performed using the SYBR Green RT-PCR Kit (Qiagen) using a GeneAmp 5700 Sequence Detector (Applied Biosystems), which allows amplification and detection (by fluorescence) in the same tube, using a kinetic approach. Amplification data were analyzed by using GENEAMP 5700 SDS software, converted into cycle numbers at a set cycle threshold (Ct values) and quantified in relation to a standard. Human adult-lung (Clontech Lab. Inc) or human fetal-lung RNA (Stratagene) was used as standards in all the experiments. Standards were used at […]. In each experiment a no-template control was used as a control. To normalize for the amount of input cDNA, the quantified relative amount of the generated product was divided by the amount generated for the housekeeping gene beta-Actin. All samples were performed in triplicates.
(§2) Expression of E-cad was evaluated in these cell lines.

[2] = tested on: E-cad expression in H460 cells; assay: E-cad expression after HDAC inhibitor treatment; conditions: 24 hours after treatment with 4 or 10 μM MS-275
Procedure: as §1, §2

[3] = tested on: E-cad expression in H520 cells; assay: E-cad expression after HDAC inhibitor treatment; conditions: 24 hours after treatment with 4 or 10 μM MS-275
Procedure: as §1, §2

[4] = tested on: 1483 head & neck cancer cell line; assay: Modified MTT growth inhibition assay; conditions: SNDX275 added as first drug
Procedure: (§3) Combination administrations were performed as sequential treatments where the HDAC inhibitor was administer prior to the EGFR inhibitor, or simultaneous treatments in selected cell lines. Concentrations of HDAC inhibitors and EGFR inhibitors are indicated as μM concentrations in all experiments. SNDX275 was administered in three increasing concentrations, with a variety of ranges depending upon the cell line.
(§4) Drugs were diluted in fresh medium before each experiment, and the final DMSO concentration was <0.1%. Growth inhibition was assessed using a modified MTT assay. 2×10^3 cells were plated in each well of 96-well flat-bottomed microtiter plates and drugs were added the next day. […] The microtiter plates were incubated for 4 hours at 37° C. The visible absorbance of each well was measured using an automated plate reader (Molecular Devices, Sunnyvale, Calif.), and data were analyzed using SlideWrite to determine the drug IC50.

[5] = tested on: 584 head & neck cancer cell line; assay: Modified MTT growth inhibition assay; conditions: SNDX275 added as first drug
Procedure: as §3, §4

[6] = tested on: Detroit562 head & neck cancer cell line; assay: Modified MTT growth inhibition assay
Procedure: as §3, §4

[7] = tested on: FaDu head & neck cancer cell line; assay: Modified MTT growth inhibition assay
Procedure: as §3, §4

[8] = tested on: HPAFII pancreatic cancer cell line; assay: Modified MTT growth inhibition assay; conditions: SNDX275 added as first drug
Procedure: as §3, §4

[9] = tested on: HS766T pancreatic cancer cell line; assay: Modified MTT growth inhibition assay
Procedure: as §3, §4

[10] = tested on: MSK2922 head & neck cancer cell line; assay: Modified MTT growth inhibition assay; conditions: SNDX275 added as first drug
Procedure: as §3, §4

[11] = tested on: Panc02.03 pancreatic cancer cell line; assay: Modified MTT growth inhibition assay; conditions: Panc 02.03
Procedure: as §3, §4

[12] = tested on: Panc03.27 pancreatic cancer cell line; assay: Modified MTT growth inhibition assay; conditions: Panc 03.27, both drugs added at the same time
Procedure: as §3, §4

[13] = tested on: Panc04.03 pancreatic cancer cell line; assay: Modified MTT growth inhibition assay; conditions: Panc 04.03
Procedure: as §3, §4

[14] = tested on: UMSCC19 head & neck cancer cell line; assay: Modified MTT growth inhibition assay
Procedure: as §3, §4

[15] = tested on: UMSCC22B head & neck cancer cell line; assay: Modified MTT growth inhibition assay
Procedure: as §3, §4

[16] = SNDX275 0.60 μM alone, SNDX275 added as first drug
[17] = SNDX275 0.60 μM alone, both drugs added at the same time
[18] = SNDX275 2.00 μM alone, SNDX275 added as first drug
[19] = SNDX275 2.00 μM alone, both drugs added at the same time
[20] = SNDX275 1.0 μM alone, SNDX275 added as first drug
[21] = SNDX275 1.0 μM alone, both drugs added at the same time
[22] = SNDX275 6.0 μM alone, SNDX275 added as first drug
[23] = SNDX275 6.0 μM alone, both drugs added at the same time
[24] = SNDX275 0.6 μM alone, both drugs added at the same time
[25] = SNDX275 3.0 μM alone, SNDX275 added as first drug
[26] = SNDX275 3.0 μM alone, both drugs added at the same time

**Q.** Which “upregulation of E-cad expression” value [1] does the source give for `Nc1ccccc1NC(=O)c1ccc(CNC(=O)OCc2cccnc2)cc1` [MS-275] here?
**A.** Eight to twelve fold

**Q.** What about the “upregulation of E-cad expression” value [2] of the same molecule?
**A.** Eight to twelve fold

**Q.** What about the “upregulation of E-cad expression” value [3] of the same molecule?
**A.** Eight to twelve fold

**Q.** And the surviving ([4]; SNDX275 0.6 μM alone)?
**A.** 79.246%

**Q.** What about the surviving ([4]; SNDX275 2.0 μM alone) of the same molecule?
**A.** 51.509%

**Q.** What about the surviving ([4]; SNDX275 3.0 μM alone) of the same molecule?
**A.** 31.776%

**Q.** And the surviving ([5]; SNDX275 0.3 μM alone)?
**A.** 84.045%

**Q.** What about the surviving ([5]; SNDX275 1.0 μM alone) of the same molecule?
**A.** 45.516%

**Q.** What about the surviving ([5]; SNDX275 2.0 μM alone) of the same molecule?
**A.** 20.656%

**Q.** What about the surviving ([6]; SNDX275 0.06 μM alone, SNDX275 added as first drug) of the same molecule?
**A.** 75.017%

**Q.** What about the surviving ([6]; SNDX275 0.06 μM alone, both drugs added at the same time) of the same molecule?
**A.** 79.829%

**Q.** And the surviving [6, 16]?
**A.** 58.925%

**Q.** And the surviving [6, 17]?
**A.** 72.276%

**Q.** What about the surviving [6, 18] of the same molecule?
**A.** 23.887%

**Q.** What about the surviving [6, 19] of the same molecule?
**A.** 28.832%

**Q.** What about the surviving ([7]; SNDX275 0.30 μM alone, SNDX275 added as first drug) of the same molecule?
**A.** 69.008%

**Q.** What about the surviving ([7]; SNDX275 0.30 μM alone, both drugs added at the same time) of the same molecule?
**A.** 87.506%

**Q.** And the surviving [7, 16]?
**A.** 48.451%

**Q.** What about the surviving [7, 17] of the same molecule?
**A.** 73.418%

**Q.** And the surviving [7, 18]?
**A.** 20.262%

**Q.** What about the surviving [7, 19] of the same molecule?
**A.** 30.504%

**Q.** And the surviving ([8]; SNDX275 0.10 μM alone)?
**A.** 74.635%

**Q.** What about the surviving ([8]; SNDX275 0.30 μM alone) of the same molecule?
**A.** 42.098%

**Q.** And the surviving ([8]; SNDX275 1.00 μM alone)?
**A.** 28.287%

**Q.** What about the surviving [9, 20] of the same molecule?
**A.** 77.851%

**Q.** And the surviving [9, 21]?
**A.** 78.939%

**Q.** And the surviving [9, 22]?
**A.** 40.175%

**Q.** What about the surviving [9, 23] of the same molecule?
**A.** 55.038%

**Q.** What about the surviving ([9]; SNDX275 10.0 μM alone, SNDX275 added as first drug) of the same molecule?
**A.** 77.851%

**Q.** What about the surviving ([9]; SNDX275 10.0 μM alone, both drugs added at the same time) of the same molecule?
**A.** 32.797%

**Q.** What about the surviving ([10]; SNDX275 0.3 μM alone) of the same molecule?
**A.** 68.519%

**Q.** And the surviving ([10]; SNDX275 0.6 μM alone)?
**A.** 42.857%

**Q.** What about the surviving ([10]; SNDX275 1.0 μM alone) of the same molecule?
**A.** 24.438%

**Q.** What about the surviving ([11]; SNDX275 0.6 μM alone, SNDX275 added as first drug) of the same molecule?
**A.** 71.569%

**Q.** What about the surviving [11, 24] of the same molecule?
**A.** 44.980%

**Q.** What about the surviving [11, 20] of the same molecule?
**A.** 34.220%

**Q.** What about the surviving [11, 21] of the same molecule?
**A.** 34.529%

**Q.** And the surviving [11, 25]?
**A.** 24.323%

**Q.** And the surviving [11, 26]?
**A.** 25.444%

**Q.** And the surviving ([12]; SNDX275 0.10 μM alone)?
**A.** 78.263%

**Q.** And the surviving ([12]; SNDX275 2.00 μM alone)?
**A.** 38.926%

**Q.** What about the surviving ([12]; SNDX275 6.00 μM alone) of the same molecule?
**A.** 21.757%

**Q.** And the surviving ([13]; SNDX275 0.3 μM alone, SNDX275 added as first drug)?
**A.** 71.205

**Q.** And the surviving [13, 24]?
**A.** 63.051%

**Q.** What about the surviving [13, 20] of the same molecule?
**A.** 49.175

**Q.** And the surviving [13, 21]?
**A.** 28.676%

**Q.** What about the surviving [13, 25] of the same molecule?
**A.** 37.954

**Q.** And the surviving [13, 26]?
**A.** 25.551%

**Q.** And the surviving ([14]; SNDX275 0.60 μM alone, SNDX275 added as first drug (first table))?
**A.** 73.417%

**Q.** And the surviving ([14]; SNDX275 0.60 μM alone, SNDX275 added as first drug (second table))?
**A.** 83.778%

**Q.** And the surviving ([14]; SNDX275 2.00 μM alone, SNDX275 added as first drug (first table))?
**A.** 54.951%

**Q.** And the surviving ([14]; SNDX275 2.00 μM alone, SNDX275 added as first drug (second table))?
**A.** 46.466%

**Q.** What about the surviving ([14]; SNDX275 6.00 μM alone, SNDX275 added as first drug (first table)) of the same molecule?
**A.** 24.242%

**Q.** And the surviving ([14]; SNDX275 6.00 μM alone, SNDX275 added as first drug (second table))?
**A.** 37.033%

**Q.** What about the surviving [15, 20] of the same molecule?
**A.** 73.156%

**Q.** What about the surviving [15, 21] of the same molecule?
**A.** 76.730%

**Q.** What about the surviving ([15]; SNDX275 2.0 μM alone, SNDX275 added as first drug) of the same molecule?
**A.** 55.978%

**Q.** What about the surviving ([15]; SNDX275 2.0 μM alone, both drugs added at the same time) of the same molecule?
**A.** 63.169%

**Q.** And the surviving [15, 22]?
**A.** 25.180%

**Q.** What about the surviving [15, 23] of the same molecule?
**A.** 55.057%
